Assay results from patent US20230322761A1, “DEGRADATION OF BRUTON'S TYROSINE KINASE (BTK) BY CONJUGATION OF BTK INHIBITORS WITH E3 LIGASE LIGAND AND METHODS OF USE” (BEIGENE, LTD., priority 2020, published 2023).

Target: T1, BTK (Homo sapiens, UniProt Q06187)
T1 construct: endogenous in cells; host or cells: TMD-8 cells
Assay: BTK degradation in TMD-8 cells, HTRF assay after 6 h treatment
Assay type: cell-based
Conditions: for DC50: IC50 (DC50) of BTK degradation; for Dmax: TMD8, maximum percentage of inhibition (degradation)
Procedure, shortened: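 TMD-8 cells treated for 6 h with 8 compound doses in 6-fold dilution steps from a 1 mM 500× DMSO stock (0.2% DMSO), then lysed 30 min at room temperature. BTK in lysate detected by HTRF (665/620 nm) after overnight antibody incubation; DC50 from four-parameter curve fit.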

T1 sequence (Q06187 whole entry): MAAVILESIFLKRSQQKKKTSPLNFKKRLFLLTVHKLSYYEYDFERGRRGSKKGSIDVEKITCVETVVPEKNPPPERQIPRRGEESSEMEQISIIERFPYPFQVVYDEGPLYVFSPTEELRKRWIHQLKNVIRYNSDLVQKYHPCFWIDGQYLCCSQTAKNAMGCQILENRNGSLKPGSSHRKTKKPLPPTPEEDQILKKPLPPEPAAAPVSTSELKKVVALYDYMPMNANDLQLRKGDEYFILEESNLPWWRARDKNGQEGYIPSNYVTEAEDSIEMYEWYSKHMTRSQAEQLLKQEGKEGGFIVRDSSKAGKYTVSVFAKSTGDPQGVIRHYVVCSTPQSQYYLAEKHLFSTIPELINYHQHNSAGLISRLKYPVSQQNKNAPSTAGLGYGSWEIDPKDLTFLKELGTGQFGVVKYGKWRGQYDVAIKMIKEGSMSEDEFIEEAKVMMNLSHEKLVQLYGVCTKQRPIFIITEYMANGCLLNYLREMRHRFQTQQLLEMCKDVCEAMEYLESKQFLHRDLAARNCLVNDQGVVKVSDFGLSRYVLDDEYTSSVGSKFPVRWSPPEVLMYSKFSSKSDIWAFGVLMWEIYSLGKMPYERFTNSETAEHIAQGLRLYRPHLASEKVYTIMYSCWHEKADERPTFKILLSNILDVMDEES

SMILES	DC50 [nM]	Dmax [%]
Cc1cc(N2CCC(CN3CCN(c4ccc(-c5cnc6[nH]nc(-c7cc(CO)c([C@@H](C)NC(=O)c8nc(C(C)(C)C)no8)cc7F)c6c5)cc4)CC3)CC2)ccc1N1CCC(=O)NC1=O [Example 190, (R)-3-(tert-butyl)-N-(1-(4-(5-(4-(4-((1-(4-(2,4-dioxotetrahydropyrimidin-1(2H)-yl)-3-methylphenyl)piperidin-4-yl)methyl)piperazin-1-yl)phenyl)-1H-pyrazolo[3,4-b]pyridin-3-yl)-5-fluoro-2-(hydroxymethyl)phenyl)ethyl)-1,2,4-oxadiazole-5-carboxamide]	6.11	–
Cc1cc(-c2n[nH]c3ncc(-c4ccc(N5CCN(CCc6ccc(N7CCC(=O)NC7=O)nc6)CC5)cc4)cc23)ccc1[C@@H](C)NC(=O)c1noc(C(C)(C)C)n1 [Example 159, (R)-5-(tert-butyl)-N-(1-(4-(5-(4-(4-(2-(6-(2,4-dioxotetrahydropyrimidin-1(2H)-yl)pyridin-3-yl)ethyl)piperazin-1-yl)phenyl)-1H-pyrazolo[3,4-b]pyridin-3-yl)-2-methylphenyl)ethyl)-1,2,4-oxadiazole-3-carboxamide]	56.3	–
CC(C)(C)c1noc(C(=O)NCc2ccc(-c3n[nH]c4ncc(-c5ccc(N6CCN(CC7CCN(c8ccc(N9CCC(=O)NC9=O)cc8)CC7)CC6)cc5)cc34)cc2F)n1 [Example 11, 3-(tert-butyl)-N-(4-(5-(4-(4-((1-(4-(2,4-dioxotetrahydropyrimidin-1(2H)-yl)phenyl)piperidin-4-yl)methyl)piperazin-1-yl)phenyl)-1H-pyrazolo[3,4-b]pyridin-3-yl)-2-fluorobenzyl)-1,2,4-oxadiazole-5-carboxamide]	5.98	94.1
Cc1cc(-c2n[nH]c3ncc(-c4ccc(C5(C)CCN(C6CC(c7ccc(C8CCC(=O)NC8=O)cc7)C6)CC5)cc4)cc23)ccc1[C@@H](C)NC(=O)c1noc(C(C)(C)C)n1 (stereo partly drawn) [Example 211, 5-(tert-butyl)-N-((1R)-1-(4-(5-(4-(1-(3-(4-(2,6-dioxopiperidin-3-yl)phenyl)cyclobutyl)-4-methylpiperidin-4-yl)phenyl)-1H-pyrazolo[3,4-b]pyridin-3-yl)-2-methylphenyl)ethyl)-1,2,4-oxadiazole-3-carboxamide]	13.5	–
Cc1c([C@@H](C)NC(=O)c2nc(C(C)(C)C)no2)ccc(-c2n[nH]c3ncc(-c4ccc(N5CCN(CC6CCN(c7ccc(N8CCC(=O)NC8=O)cc7)CC6)CC5)cc4)cc23)c1F [Example 45, (R)-3-(tert-butyl)-N-(1-(4-(5-(4-(4-((1-(4-(2,4-dioxotetrahydropyrimidin-1(2H)-yl)phenyl)piperidin-4-yl)methyl)piperazin-1-yl)phenyl)-1H-pyrazolo[3,4-b]pyridin-3-yl)-3-fluoro-2-methylphenyl)ethyl)-1,2,4-oxadiazole-5-carboxamide]	2.15	–
CC(C)(C)c1noc(C(=O)NCc2ccc(-c3n[nH]c4ncc(-c5ccc(C6CCN(CCc7ccc(N8CCC(=O)NC8=O)cc7)CC6)cc5)cc34)cc2F)n1 [Example 13, 3-(tert-butyl)-N-(4-(5-(4-(1-(4-(2,4-dioxotetrahydropyrimidin-1(2H)-yl)phenethyl)piperidin-4-yl)phenyl)-1H-pyrazolo[3,4-b]pyridin-3-yl)-2-fluorobenzyl)-1,2,4-oxadiazole-5-carboxamide]	25.7	93
Cc1cc(-c2n[nH]c3ncc(-c4ccc(N5CCN(CC6CCN(c7cc(F)ccc7N7CCC(=O)NC7=O)CC6)CC5)cc4)cc23)ccc1[C@@H](C)NC(=O)c1noc(C(C)(C)C)n1 [Example 90, (R)-5-(tert-butyl)-N-(1-(4-(5-(4-(4-((1-(2-(2,4-dioxotetrahydropyrimidin-1(2H)-yl)-5-fluorophenyl)piperidin-4-yl)methyl)piperazin-1-yl)phenyl)-1H-pyrazolo[3,4-b]pyridin-3-yl)-2-methylphenyl)ethyl)-1,2,4-oxadiazole-3-carboxamide]	> 2000	–
Cc1cc(-c2n[nH]c3ncc(-c4ccc(N5CCN(CC6CCN(c7ccc(N8CCC(=O)NC8=O)cc7)CC6)CC5)cc4)cc23)ccc1CNC(=O)c1cn(C(C)(C)C)nn1 [Example 31, 1-(tert-butyl)-N-(4-(5-(4-(4-((1-(4-(2,4-dioxotetrahydropyrimidin-1(2H)-yl)phenyl)piperidin-4-yl)methyl)piperazin-1-yl)phenyl)-1H-pyrazolo[3,4-b]pyridin-3-yl)-2-methylbenzyl)-1H-1,2,3-triazole-4-carboxamide]	21.8	97.4
Cc1cc(-c2n[nH]c3ncc(-c4ccc(N5CCN(CCC6CCN(c7ccc(N8CCC(=O)NC8=O)c(Cl)c7)CC6)CC5)cc4)cc23)ccc1[C@@H](C)NC(=O)c1ccc(C(C)(C)O)cc1F [Example 104, (R)—N-(1-(4-(5-(4-(4-(2-(1-(3-chloro-4-(2,4-dioxotetrahydropyrimidin-1(2H)-yl)phenyl)piperidin-4-yl)ethyl)piperazin-1-yl)phenyl)-1H-pyrazolo[3,4-b]pyridin-3-yl)-2-methylphenyl)ethyl)-2-fluoro-4-(2-hydroxypropan-2-yl)benzamide]	> 2000	–
Cc1cc(-c2n[nH]c3ncc(-c4ccc(N5CCN(CC6CCN(c7ccc(N8CCC(=O)NC8=O)cc7)CC6)CC5)cc4)cc23)c(F)cc1[C@@H](C)NC(=O)c1nc(C(C)(C)C)no1 [Example 46, (R)-3-(tert-butyl)-N-(1-(4-(5-(4-(4-((1-(4-(2,4-dioxotetrahydropyrimidin-1(2H)-yl)phenyl)piperidin-4-yl)methyl)piperazin-1-yl)phenyl)-1H-pyrazolo[3,4-b]pyridin-3-yl)-5-fluoro-2-methylphenyl)ethyl)-1,2,4-oxadiazole-5-carboxamide]	5.13	–
Cc1cc(-c2n[nH]c3ncc(-c4ccc(N5CCN(CCC6CCN(c7ccc([C@H]8CCC(=O)NC8=O)cc7)CC6)CC5)cc4)cc23)ccc1CNC(=O)c1noc(C(C)(C)C)n1 [Example 91, (R)-5-(tert-butyl)-N-(4-(5-(4-(4-(2-(1-(4-(2,6-dioxopiperidin-3-yl)phenyl)piperidin-4-yl)ethyl)piperazin-1-yl)phenyl)-1H-pyrazolo[3,4-b]pyridin-3-yl)-2-methylbenzyl)-1,2,4-oxadiazole-3-carboxamide]	1.97	–
Cc1cc(-c2n[nH]c3ncc(-c4ccc(N5CCN(CCc6ccc(C7CCC(=O)NC7=O)c(Cl)c6)CC5)cc4)cc23)ccc1CNC(=O)c1noc(C(C)(C)C)n1 (stereo not shown) [Example 51, 5-(tert-butyl)-N-(4-(5-(4-(4-(3-chloro-4-(2,6-dioxopiperidin-3-yl)phenethyl)piperazin-1-yl)phenyl)-1H-pyrazolo[3,4-b]pyridin-3-yl)-2-methylbenzyl)-1,2,4-oxadiazole-3-carboxamide]	3.83	–
Cc1cc(-c2n[nH]c3ncc(-c4ccc(N5CC6(CN(CC7CCN(c8ccc(N9CCC(=O)NC9=O)cc8)CC7)C6)C5)cc4)cc23)ccc1[C@@H](C)NC(=O)c1nc(C(C)(C)C)no1 [Example 212, (R)-3-(tert-butyl)-N-(1-(4-(5-(4-(6-((1-(4-(2,4-dioxotetrahydropyrimidin-1(2H)-yl)phenyl)piperidin-4-yl)methyl)-2,6-diazaspiro[3.3]heptan-2-yl)phenyl)-1H-pyrazolo[3,4-b]pyridin-3-yl)-2-methylphenyl)ethyl)-1,2,4-oxadiazole-5-carboxamide]	1.95	–
